Results as given in US8030283B2, “Stabilization of amrubicin hydrochloride” (Dainippon Sumitomo Pharma Co., Ltd., priority 2001, dated 2011).

Experiment: Storage stability of amrubicin hydrochloride compositions: rates of by-product generation of degradation products
Type: physicochemical
Experimental: Various compositions of amrubicin hydrochloride composed of about 91 to about 98% by weight of amrubicin hydrochloride and about 2 to about 9% by weight of water were prepared by exposing dried amrubicin hydrochloride to air whose relative humidity was adjusted (0 to 95%).
The thus-prepared amrubicin hydrochloride compositions having water contents of about 2 to about 9% by weight were stored at 30° C. and investigated rates of by-product generation of the degradation products, i.e., the desaccharification and deamination products.
The relative humidity was adjusted by reference to “Kobunshi Jikken-gaku Koza (Polymer Experiment Course) 5, Kobunshi no Bussei (Physical Properties of Polymers), 100-107 pages (Kyoritsu Shuppan Kabushiki Kaisha)”.

[1] = according to the decrease in water content
[2] = according to the increase in water content

CC(=O)[C@]1(N)Cc2c(O)c3c(c(O)c2[C@@H](O[C@H]2C[C@H](O)[C@H](O)CO2)C1)C(=O)c1ccccc1C3=O.Cl [amrubicin hydrochloride, (7S,9S)-9-Acetyl-9-amino-7-[(2-deoxy-β-D-erythro-pentapyranosyl)oxy]-7,8,9,10-tetrahydro-6,11-dihydroxy-5,12-nephthacenedione hydrochloride]
by-product generation rate of the deamination product [1]: decreased
by-product generation rate of the desaccharification product [1]: increased
by-product generation rate of the deamination product [2]: increased
by-product generation rate of the desaccharification product [2]: decreased
by-product generation of both desaccharification and deamination products (stored at 30° C. under an atmosphere at 5 to 90% relative humidity (FIG. 1)): can be suppressed
by-product generation of both desaccharification and deamination products (stored at 30° C., water content in composition controlled at 3 to 8% by weight (FIG. 2)): can be suppressed
